Data set [1] is described as follows: Cytotoxicity against CRL8155 cell line. Format: cell-based. The following applies: human, CRL8155 cells (lymphoblast, spleen), read-out: Cytotoxicity (CRL8155) EC50.
Data set [2] concerns the target TgCDPK1 (Toxoplasma gondii, UniProt Q9BJF5). Kind of data set: biochemical. Particulars: read-out: TgCDPK1 IC50.
Data set [3] deals with CpCDPK1 (Cryptosporidium parvum (strain Iowa II), UniProt A3FQ16). Description: biochemical. The following applies: Table 1; KinaseGlo, Syntide 2 peptide substrate; read-out: CpCDPK1 IC50. (Kinase-Glo measures the ATP left after a reaction by luminescence.)
The target of data set [4] is Src (Homo sapiens (Human), UniProt P12931). Description: biochemical.
Data set [5] has as its system T. gondii. Description: Inhibition of T. gondii cell proliferation. The data set is classed as cell-based. Particulars: Toxoplasma gondii; Table 3; read-out: T. gondii EC50.
Setting [6] is: Table 1, KinaseGlo, Syntide 2 peptide substrate.

Read-outs that look alike come from different tables or passages of the source. A value given as a limit tells only on which side of the number the result lay.

Chain of CpCDPK1 (A3FQ16 1-538): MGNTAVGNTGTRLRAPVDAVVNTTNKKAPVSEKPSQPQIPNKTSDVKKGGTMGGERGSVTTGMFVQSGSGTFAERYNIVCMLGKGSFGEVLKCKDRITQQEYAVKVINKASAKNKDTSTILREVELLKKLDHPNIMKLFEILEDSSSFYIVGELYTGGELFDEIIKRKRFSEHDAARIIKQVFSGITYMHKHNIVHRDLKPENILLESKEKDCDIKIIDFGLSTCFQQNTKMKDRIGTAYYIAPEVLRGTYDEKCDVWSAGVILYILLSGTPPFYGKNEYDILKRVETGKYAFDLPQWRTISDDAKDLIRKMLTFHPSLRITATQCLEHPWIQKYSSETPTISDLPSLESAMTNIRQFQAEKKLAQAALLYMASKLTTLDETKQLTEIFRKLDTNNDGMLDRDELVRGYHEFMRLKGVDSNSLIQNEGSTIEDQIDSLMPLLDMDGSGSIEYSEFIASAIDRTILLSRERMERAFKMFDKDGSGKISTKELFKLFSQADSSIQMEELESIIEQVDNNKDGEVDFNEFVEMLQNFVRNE
Chain of TgCDPK1 (Q9BJF5 1-507): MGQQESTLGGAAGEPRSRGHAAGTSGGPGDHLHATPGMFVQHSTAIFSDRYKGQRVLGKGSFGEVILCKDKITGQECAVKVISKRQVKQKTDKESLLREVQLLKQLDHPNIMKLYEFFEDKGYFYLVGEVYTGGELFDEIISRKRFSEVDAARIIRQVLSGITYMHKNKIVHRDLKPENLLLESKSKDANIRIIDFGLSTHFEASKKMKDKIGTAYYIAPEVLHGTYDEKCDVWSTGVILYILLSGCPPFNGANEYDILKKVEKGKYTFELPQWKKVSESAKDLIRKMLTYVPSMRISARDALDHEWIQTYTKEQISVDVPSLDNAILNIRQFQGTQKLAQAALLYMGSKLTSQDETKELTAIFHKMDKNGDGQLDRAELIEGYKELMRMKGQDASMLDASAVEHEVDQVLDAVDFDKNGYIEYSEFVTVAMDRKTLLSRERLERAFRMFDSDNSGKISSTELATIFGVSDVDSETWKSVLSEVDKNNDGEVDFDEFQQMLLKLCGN
Chain of Src (P12931 270-523): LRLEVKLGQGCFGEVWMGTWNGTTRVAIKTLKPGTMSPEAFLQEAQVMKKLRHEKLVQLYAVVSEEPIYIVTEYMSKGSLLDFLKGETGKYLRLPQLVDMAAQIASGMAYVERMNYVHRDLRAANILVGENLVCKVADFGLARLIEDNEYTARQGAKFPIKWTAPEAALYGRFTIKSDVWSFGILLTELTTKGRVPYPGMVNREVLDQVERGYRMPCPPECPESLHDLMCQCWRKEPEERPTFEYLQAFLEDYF

Consider `CC(C)(C)Cn1nc(-c2ccc3ccccc3c2)c(C(N)=O)c1N` [Compound 19, 5-amino-3-(naphthalen-2-yl)-1-neopentyl-1H-pyrazole-4-carboxamide], for which the EC50 (in general, the concentration needed to bring the measured effect to its halfway point) in data set [1] (Table 2) is over 40000 nM.
Regarding `CC(C)(C)n1nc(-c2cnc3ccccc3c2)c(C(N)=O)c1N` [Compound 38, 5-amino-1-(tert-butyl)-3-(quinolin-3-yl)-1H-pyrazole-4-carboxamide], the half-inhibitory concentration (IC50) – broadly, the concentration at which inhibition is half-maximal – was 6 nM in data set [2]; 7 nM in data set [3]; over 10 µM in data set [4] (Src IC50 (μM), Table 2). Also, in data set [1] (Table 2), the 50% effective concentration (EC50) is over 40000 nM.
Take `CC(C)(C)n1nc(-c2cnc3cc(F)ccc3c2)c(C(N)=O)c1N` [Compound 1545, 5-amino-1-tert-butyl-3-(7-fluoroquinolin-3-yl)-1H-pyrazole-4-carboxamide]: the EC50 in data set [1] (Table 3) is over 40000 nM. For the same compound, in data set [4] (Src IC50 (μM), Table 3), the 50% inhibitory concentration (IC50) was over 30 µM.
In the case of `CC(C)Oc1ccc2cc(-c3nn(C(C)(C)C)c(N)c3C(N)=O)cnc2c1` [Compound 1569, 5-amino-1-(tert-butyl)-3-(7-isopropoxyquinolin-3-yl)-1H-pyrazole-4-carboxamide], in data set [3], the 50% inhibitory concentration (IC50) amounted to 5 nM. The EC50 in data set [1] (Table 3) is over 40000 nM.
In the case of `CCOc1ccc2cc(-c3nn(CC(C)(C)CO)c(N)c3C(N)=O)cnc2c1` [Compound 1596, 5-amino-3-(7-ethoxyquinolin-3-yl)-1-(3-hydroxy-2,2-dimethylpropyl)-1H-pyrazole-4-carboxamide], the EC50 in data set [1] (Table 3) was over 40000 nM. In data set [4] (Src IC50 (μM), Table 3), the IC50 is over 10 µM.
With `CCOc1ccc2cc(-c3nn(C(C)(C)C)c(N)c3C(N)=O)ccc2n1` [Compound 1597, 5-amino-1-(tert-butyl)-3-(2-ethoxyquinolin-6-yl)-1H-pyrazole-4-carboxamide], the IC50 in data set [3] is 3 nM; in data set [4] (Src IC50 (μM), Table 3) it was over 10 µM. Further, the EC50 in data set [1] (Table 3) was over 40000 nM.
As for `CCOc1ccc2cc(-c3nn(CC4CC4)c(N)c3C(N)=O)cnc2c1` [Compound 1598, 5-amino-1-(cyclopropylmethyl)-3-(7-ethoxyquinolin-3-yl)-1H-pyrazole-4-carboxamide], the IC50 in data set [2] (setting [6]) is 12 nM; in data set [3], 5 nM; in data set [4] (Src IC50 (μM), Table 3), over 10 µM. Also, the EC50 in data set [1] (Table 3) was over 40000 nM.
As to `CCOc1ccc2cc(-c3nn(C4CCCCCC4)c(N)c3C(N)=O)cnc2c1` [Compound 1604, 5-amino-1-cycloheptyl-3-(7-ethoxyquinolin-3-yl)-1H-pyrazole-4-carboxamide], the IC50 in data set [3] is 2 nM; in data set [4] (Src IC50 (μM), Table 3) it was over 10 µM. Further, the half-maximal effective concentration (EC50) in data set [1] (Table 3) was over 40000 nM.
In the case of `CCOc1ccc2cc(-c3nn(C4CCCC4)c(N)c3C(N)=O)cnc2c1` [Compound 1605, 5-amino-1-cyclopentyl-3-(7-ethoxyquinolin-3-yl)-1H-pyrazole-4-carboxamide], the IC50 in data set [3] is 4 nM; in data set [4] (Src IC50 (μM), Table 3), over 10 µM. The EC50 in data set [1] (Table 3) was over 40000 nM.
For the compound `CCOc1ccc2cc(-c3nn(CC(C)(C)CO)c(N)c3C(N)=O)ccc2n1` [Compound 1622, 5-amino-3-(2-ethoxyquinolin-6-yl)-1-(3-hydroxy-2,2-dimethylpropyl)-1H-pyrazole-4-carboxamide], in data set [1] (Table 3), the EC50 is over 40000 nM.
Take `CCOc1ccc2cc(-c3nn(C4CCCCC4)c(N)c3C(N)=O)ccc2n1` [Compound 1633, 5-amino-1-cyclohexyl-3-(2-ethoxyquinolin-6-yl)-1H-pyrazole-4-carboxamide]: the IC50 in data set [2] (setting [6]) is 4 nM; in data set [3], 2 nM; in data set [4] (Src IC50 (μM), Table 3) it was over 10 µM. Also, the EC50 in data set [1] (Table 3) was over 40000 nM.
On the same counts, the results for `CCOc1ccc2cc(-c3nn(CC4CC4)c(N)c3C(N)=O)ccc2n1` [Compound 1635, 5-amino-1-(cyclopropylmethyl)-3-(2-ethoxyquinolin-6-yl)-1H-pyrazole-4-carboxamide] are 6 nM, 3 nM, over 10 µM and over 40000 nM.
For the compound `CCOc1ccc2cc(-c3nn(C(C)C(C)(C)CO)c(N)c3C(N)=O)cnc2c1` (stereo not drawn) [Compound 1637, 5-amino-3-(7-ethoxyquinolin-3-yl)-1-(4-hydroxy-3,3-dimethylbutan-2-yl)-1H-pyrazole-4-carboxamide], the half-maximal inhibitory concentration (IC50) worked out at 12 nM in data set [2] (setting [6]) and 4 nM in data set [3].
`CC(C)(C)n1nc(-c2ccc3nc(OC4CCC4)ccc3c2)c(C(N)=O)c1N` [Compound 1639, 5-amino-1-(tert-butyl)-3-(2-cyclobutoxyquinolin-6-yl)-1H-pyrazole-4-carboxamide]: the IC50 in data set [2] (setting [6]) was 5 nM; in data set [3], 6 nM; in data set [4] (Src IC50 (μM), Table 3), over 10 µM. The EC50 in data set [1] (Table 3) is over 40000 nM.
Regarding `CCOc1ccc2cc(-c3nn(C4(C)CCCCC4)c(N)c3C(N)=O)cnc2c1` [Compound 1640, 5-amino-3-(7-ethoxyquinolin-3-yl)-1-(1-methylcyclohexyl)-1H-pyrazole-4-carboxamide], the 50% inhibitory concentration (IC50) is 9 nM in data set [2] (setting [6]) and 6 nM in data set [3].
For `CCOc1ccc2cc(-c3nn(CC(C)(C)O)c(N)c3C(N)=O)cnc2c1` [Compound 1641, 5-amino-3-(7-ethoxyquinolin-3-yl)-1-(2-hydroxy-2-methylpropyl)-1H-pyrazole-4-carboxamide] the same measures were 41 nM and 21 nM.
In the case of `CC(C)(C)n1nc(-c2ccc3nc(OC4CC4)ccc3c2)c(C(N)=O)c1N` [Compound 1643, 5-amino-1-(tert-butyl)-3-(2-cyclopropoxyquinolin-6-yl)-1H-pyrazole-4-carboxamide], the IC50 was 5.7 nM in data set [2] (setting [6]); 3 nM in data set [3]; over 10 µM in data set [4] (Src IC50 (μM), Table 3). In addition, the EC50 in data set [1] (Table 3) is over 40000 nM.
As to `CC(C)(CO)Cn1nc(-c2cnc3cc(OC4CCC4)ccc3c2)c(C(N)=O)c1N` [Compound 1644, 5-amino-3-(7-cyclobutoxyquinolin-3-yl)-1-(3-hydroxy-2,2-dimethylpropyl)-1H-pyrazole-4-carboxamide], the IC50 in data set [2] (setting [6]) is 12 nM; in data set [3], 5 nM; in data set [4], over 10 µM. The EC50 in data set [5] is 770 nM; in data set [1] (Table 3), over 40000 nM.
Regarding `CC(C)(CO)Cn1nc(-c2ccc3nc(OC4CCC4)ccc3c2)c(C(N)=O)c1N` [Compound 1645, 5-amino-3-(2-cyclobutoxyquinolin-6-yl)-1-(3-hydroxy-2,2-dimethylpropyl)-1H-pyrazole-4-carboxamide], the IC50 in data set [3] was 5 nM; in data set [4] (Src IC50 (μM), Table 3), over 10 µM. For the same compound, the figures for the EC50 in data set [5] and in data set [1] (Table 3) were 480 nM and over 40000 nM, respectively.
On to `NC(=O)c1c(-c2ccc3nc(OC4CCC4)ccc3c2)nn(C2CCCCC2)c1N` [Compound 1646, 5-amino-3-(2-cyclobutoxyquinolin-6-yl)-1-cyclohexyl-1H-pyrazole-4-carboxamide], for which the IC50 in data set [2] (setting [6]) was 16 nM; in data set [3], 13 nM; in data set [4], over 10 µM. Besides, the EC50 was 310 nM in data set [5] and over 40000 nM in data set [1] (Table 3).
In the case of `NC(=O)c1c(-c2cnc3cc(OC4CCC4)ccc3c2)nn(C2CCCCC2)c1N` [Compound 1647, 5-amino-3-(7-cyclobutoxyquinolin-3-yl)-1-cyclohexyl-1H-pyrazole-4-carboxamide], the IC50 in data set [2] (setting [6]) was 19 nM; in data set [3], 8 nM; in data set [4] it was over 10 µM. Moreover, the figures for the 50% effective concentration (EC50) in data set [5] and in data set [1] (Table 3) were 1140 nM and over 40000 nM, respectively.
Take `CCOc1ccc2cc(-c3nn(C4CCC4)c(N)c3C(N)=O)cnc2c1` [Compound 1652]: the EC50 in data set [1] (Table 3) was over 40000 nM. For the same compound, in data set [4], the half-inhibitory concentration (IC50) is over 10 µM.
Regarding `NC(=O)c1c(-c2ccc3nc(OC4CCC4)ccc3c2)nn(C2CCCC2)c1N` [Compound 1653, 5-amino-3-(2-cyclobutoxyquinolin-6-yl)-1-cyclopentyl-1H-pyrazole-4-carboxamide], the results for the concentration for half-maximal inhibition (IC50) in data set [2] (setting [6]), in data set [3] and in data set [4] were 12 nM, 6 nM and over 10 µM, respectively. The EC50 in data set [5] was 210 nM; in data set [1] (Table 3), over 40000 nM.
For `CCOc1ccc2ncc(-c3nn(C(C)(C)C)c(N)c3C(N)=O)cc2c1` [Compound 1654, 5-amino-1-(tert-butyl)-3-(6-ethoxyquinolin-3-yl)-1H-pyrazole-4-carboxamide], the IC50 in data set [2] (setting [6]) and in data set [3] was over 2000 nM in each case.
On to `CCOc1ccc2ncc(-c3nn(C4CCCCC4)c(N)c3C(N)=O)cc2c1` [Compound 1655, 5-amino-1-cyclohexyl-3-(6-ethoxyquinolin-3-yl)-1H-pyrazole-4-carboxamide], for which the half-inhibitory concentration (IC50) in data set [2] (setting [6]) and in data set [3] was over 2000 nM in each case.
`NC(=O)c1c(-c2ccc3nc(OC4CCC4)ccc3c2)nn(C2CCC2)c1N` [Compound 1656, 5-amino-3-(2-cyclobutoxyquinolin-6-yl)-1-cyclobutyl-1H-pyrazole-4-carboxamide]: the IC50 is 7 nM in data set [2] (setting [6]) and over 10 µM in data set [4]. The results for the EC50 in data set [5] and in data set [1] (Table 3) were 69 nM and over 40000 nM, respectively.
For `NC(=O)c1c(-c2cnc3cc(OC4CCC4)ccc3c2)nn(C2CCC2)c1N` [Compound 1657, 5-amino-3-(7-cyclobutoxyquinolin-3-yl)-1-cyclobutyl-1H-pyrazole-4-carboxamide] the same measures were 12 nM, over 10 µM, 690 nM and over 40000 nM.
Regarding `CCOc1ccc2cc(-c3nn(C(C)C)c(N)c3C(N)=O)ccc2n1` [Compound 1661, 5-amino-3-(2-ethoxyquinolin-6-yl)-1-isopropyl-1H-pyrazole-4-carboxamide], the IC50 in data set [2] (setting [6]) was found to be 5 nM; in data set [3], 2 nM.

(Values after patent publication US9518026B2, “5-aminopyrazole-4-carboxamide inhibitors of CDPK1 from T. gondii and C. parvum” (UNIVERSITY OF WASHINGTON THROUGH ITS CENTER FOR …, priority 2013, dated 2016).)
